Earlier results in patent US20070293937A1, “Endoluminal medical device for local delivery of cathepsin inhibitors, method of making and treating” (MED Institute, Inc., priority 2006, published 2007).
Where a SMILES comes first, the peptide text is derived from it. The star is where a group is joined. CHN2 = [N-]=[N+]=C*

Tests used:
cathepsin C [1] = settings: Tompson et al.
cathepsin C [2] = molecular target: cathepsin C (Homo sapiens, UniProt P53634); settings: natural inhibitors
cathepsin C [3] = settings: Green and Shaw, J. Biol. Chem. 1981
purified cathepsin C = settings: as found by Kam et al.

cathepsin C (Homo sapiens, UniProt P53634), sequence (P53634 25-463, species assumed): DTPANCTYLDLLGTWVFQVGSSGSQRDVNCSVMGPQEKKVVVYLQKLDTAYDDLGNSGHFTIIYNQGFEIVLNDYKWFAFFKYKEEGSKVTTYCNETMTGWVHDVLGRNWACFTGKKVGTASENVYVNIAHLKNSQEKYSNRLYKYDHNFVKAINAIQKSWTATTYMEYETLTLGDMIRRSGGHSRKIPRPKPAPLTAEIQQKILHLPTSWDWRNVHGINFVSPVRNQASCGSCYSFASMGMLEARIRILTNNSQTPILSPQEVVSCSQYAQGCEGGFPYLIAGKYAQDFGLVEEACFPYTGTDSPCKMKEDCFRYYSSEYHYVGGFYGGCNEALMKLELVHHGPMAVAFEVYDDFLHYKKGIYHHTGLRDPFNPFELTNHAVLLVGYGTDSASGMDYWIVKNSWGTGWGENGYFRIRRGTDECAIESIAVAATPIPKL

In the case of `CS(=O)(=O)C=CC(Cc1ccccc1)NC(=O)CN` (stereo not drawn) [Gly-Phe-VS—CH3], the k2/Kl (cathepsin C [1]; J. Med. Chem. 1986) is listed as 56 M⁻¹ s⁻¹.

For `CC(C)C[C@H](NC(=O)[C@H]1O[C@@H]1C(=O)O)C(=O)NCCCCN=C(N)N` [Compound E-64, E-64], the “inhibition of cathepsin C (in words)” value (cathepsin C [2]) is listed as “inhibit cathepsin C at high inhibitor concentrations”.

For `N#CC(Cc1ccccc1)NC(=O)CN` (stereo not shown) [Gly-NHCH(CH2Ph)CN], the Ki (cathepsin C [1]; reversible nitrile inhibitor, J. Med. Chem. 1986, read-out: Kl value) is given as 2.7 µM.

In the case of `CC(=O)N[C@@H](CC(C)C)C(=O)N[C@@H](CC(C)C)C(=O)N[C@H](C=O)CCCNC(=N)N` [leupeptin], the “inhibition of cathepsin C (in words)” value (cathepsin C [2]) is given as “inhibit cathepsin C at high inhibitor concentrations”.

In the case of `[N-]=[N+]=CC(=O)[C@H](Cc1ccccc1)NC(=O)CN` [Gly-Phe-CHN2] (H-Gly-Phe-CHN2), the “kobs/[l]” value (cathepsin C [3]) is listed as 10^4 M^−1 s^−1 and the “inhibition of cathepsin C (in words)” value (purified cathepsin C) is listed as “potent inhibitor”.

For cystatin, the “inhibition of cathepsin C (in words)” value (cathepsin C [2]) is given as “inhibit cathepsin C at high inhibitor concentrations”.
